Experimental data as given in paper PMC12363935, “Unc-51 Like Kinase 3 (ULK3) is essential for autophagy and cell survival in multiple myeloma” (Research Square, 2025).

Assays:
Experiment in all cases: Kinase profiling assay (Reaction Biology), 10-dose IC50, 10 μM ATP
Format in all cases: biochemical
ULK2 = biological target: T1, ULK2 (Homo sapiens, UniProt Q8IYT8); settings: NA = no activity
T1 construct: purchased Reaction Biology Corporation
T1 sequence (Q8IYT8 1-1036): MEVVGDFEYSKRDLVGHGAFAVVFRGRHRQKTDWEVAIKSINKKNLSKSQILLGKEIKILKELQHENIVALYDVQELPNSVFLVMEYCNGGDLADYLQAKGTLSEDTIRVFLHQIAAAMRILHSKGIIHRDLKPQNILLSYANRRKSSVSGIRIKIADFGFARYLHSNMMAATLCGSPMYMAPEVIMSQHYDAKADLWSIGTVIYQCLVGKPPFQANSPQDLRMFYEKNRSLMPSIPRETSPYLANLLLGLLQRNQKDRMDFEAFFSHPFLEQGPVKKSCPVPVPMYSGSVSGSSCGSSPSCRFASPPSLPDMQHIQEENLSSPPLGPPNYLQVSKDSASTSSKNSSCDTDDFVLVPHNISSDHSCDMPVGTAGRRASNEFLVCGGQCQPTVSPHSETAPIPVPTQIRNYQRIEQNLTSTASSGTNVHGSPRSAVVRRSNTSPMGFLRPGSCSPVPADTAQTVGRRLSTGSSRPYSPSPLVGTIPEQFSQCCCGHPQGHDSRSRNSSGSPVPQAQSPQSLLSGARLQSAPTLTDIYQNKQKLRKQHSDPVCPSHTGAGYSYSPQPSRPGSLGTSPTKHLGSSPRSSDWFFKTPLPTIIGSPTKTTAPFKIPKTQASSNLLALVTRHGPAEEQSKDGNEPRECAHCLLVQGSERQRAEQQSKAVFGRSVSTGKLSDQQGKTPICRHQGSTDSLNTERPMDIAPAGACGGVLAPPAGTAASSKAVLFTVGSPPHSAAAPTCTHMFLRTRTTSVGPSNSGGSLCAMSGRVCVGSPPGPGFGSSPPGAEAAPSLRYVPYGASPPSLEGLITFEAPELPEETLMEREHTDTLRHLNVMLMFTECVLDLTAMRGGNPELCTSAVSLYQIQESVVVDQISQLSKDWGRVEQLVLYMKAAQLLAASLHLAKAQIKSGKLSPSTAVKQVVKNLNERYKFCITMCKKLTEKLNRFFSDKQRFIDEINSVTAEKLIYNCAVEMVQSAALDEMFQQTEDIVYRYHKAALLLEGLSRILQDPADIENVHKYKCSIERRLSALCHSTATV
Procedure: (§1) 310 and refinement were performed with COOT [14] and Phenix.Refine to obtain a clear electron
(§2) 311 density map (1Fo-Fc) for compound MA9-060, which was built into the structure near the end of
(§3) 312 iterative cycles of model building and refinement. Crystal parameters, data collection statistics and
(§4) 313 refinement statistics are summarized in Supplementary Fig. 4D and deposited in the protein
(§5) 314 databank with PDB code 8V1M.
(§6) 317 The compounds under investigation were tested by Reaction Biology Corporation against four
(§7) 318 specific kinases in this study (JAK2, ULK1, ULK2, ULK3). Each compound was provided as a
(§8) 319 10 mM stock solution. To facilitate dissolution, the compounds were subjected to gentle heating.
(§9) 320 Subsequent testing involved the evaluation of the compounds using a 10-dose IC50 mode,
(§10) Additionally, the control compound,
(§11) Throughout these experiments, reactions were conducted using a standardized concentration
(§12) 325 The data collected during these assays encompass raw data, % enzyme activity (relative to DMSO
(§13) 327 activities at the highest concentration of compounds were less than 65%. The IC50 summary,
(§14) 328 detailing the inhibitory concentrations of the compounds against the respective kinases, is
(§15) 331 Bromodomain profiling assay
(§16) 333 evaluated against Bromodomain 1 by Reaction Biology Corporation.
(§17) 334 The compounds were subjected to testing using a 10-dose IC50 singlet approach, involving a 3-
(§18) 335 fold serial dilution starting at 10 μM, specifically against BRD4-1. Additionally, as a benchmark,
(§19) 337 dilution starting at 10 μM.
(§20) 338 For ligand and detection purposes, the H4/4Ac ligand, representing the Histone H4 peptide (1-21)
(§21) 339 with acetylation at lysine residues K5, K8, K12, and K16, and tagged with Biotin, was utilized.

JAK2 = biological target: T2, JAK2 (Homo sapiens, UniProt O60674); settings: NA = no activity
T2 construct: purchased Reaction Biology Corporation
T2 sequence (O60674 whole entry): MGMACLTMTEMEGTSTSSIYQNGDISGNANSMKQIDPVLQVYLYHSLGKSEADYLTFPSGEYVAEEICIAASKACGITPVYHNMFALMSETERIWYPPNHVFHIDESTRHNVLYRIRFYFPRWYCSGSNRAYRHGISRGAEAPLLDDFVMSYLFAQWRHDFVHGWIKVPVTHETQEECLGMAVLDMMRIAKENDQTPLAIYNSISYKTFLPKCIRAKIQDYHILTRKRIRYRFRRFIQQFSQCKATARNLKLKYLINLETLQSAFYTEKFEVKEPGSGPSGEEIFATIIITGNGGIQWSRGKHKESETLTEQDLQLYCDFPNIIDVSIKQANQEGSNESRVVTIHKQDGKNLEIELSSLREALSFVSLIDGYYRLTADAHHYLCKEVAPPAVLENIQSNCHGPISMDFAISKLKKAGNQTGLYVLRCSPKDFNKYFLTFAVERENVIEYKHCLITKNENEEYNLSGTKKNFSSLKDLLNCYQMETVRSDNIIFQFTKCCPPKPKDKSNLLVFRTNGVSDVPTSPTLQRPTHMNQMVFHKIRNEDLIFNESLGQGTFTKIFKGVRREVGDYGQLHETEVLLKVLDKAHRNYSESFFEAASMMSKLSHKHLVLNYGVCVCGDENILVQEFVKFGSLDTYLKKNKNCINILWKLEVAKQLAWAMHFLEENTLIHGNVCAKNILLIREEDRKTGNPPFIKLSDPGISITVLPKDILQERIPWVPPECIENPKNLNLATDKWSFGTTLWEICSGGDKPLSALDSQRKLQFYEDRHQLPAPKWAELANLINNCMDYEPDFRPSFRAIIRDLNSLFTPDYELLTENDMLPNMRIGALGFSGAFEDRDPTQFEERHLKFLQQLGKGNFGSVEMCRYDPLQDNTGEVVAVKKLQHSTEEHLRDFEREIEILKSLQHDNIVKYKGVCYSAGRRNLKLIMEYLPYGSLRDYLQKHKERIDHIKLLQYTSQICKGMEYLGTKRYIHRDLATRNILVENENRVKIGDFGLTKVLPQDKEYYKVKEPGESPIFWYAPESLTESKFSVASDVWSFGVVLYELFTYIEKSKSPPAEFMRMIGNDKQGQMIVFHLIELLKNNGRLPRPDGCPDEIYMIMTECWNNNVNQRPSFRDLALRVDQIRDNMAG
Procedure: as §1, §2, §3, §4, §5, §6, §7, §8, §9, §10, §11, §12, §13, §14, §15, §16, §17, §18, §19, §20, §21

ULK1 = biological target: T3, ULK1 (Homo sapiens, UniProt O75385)
T3 construct: purchased Reaction Biology Corporation
T3 sequence (O75385 1-1050): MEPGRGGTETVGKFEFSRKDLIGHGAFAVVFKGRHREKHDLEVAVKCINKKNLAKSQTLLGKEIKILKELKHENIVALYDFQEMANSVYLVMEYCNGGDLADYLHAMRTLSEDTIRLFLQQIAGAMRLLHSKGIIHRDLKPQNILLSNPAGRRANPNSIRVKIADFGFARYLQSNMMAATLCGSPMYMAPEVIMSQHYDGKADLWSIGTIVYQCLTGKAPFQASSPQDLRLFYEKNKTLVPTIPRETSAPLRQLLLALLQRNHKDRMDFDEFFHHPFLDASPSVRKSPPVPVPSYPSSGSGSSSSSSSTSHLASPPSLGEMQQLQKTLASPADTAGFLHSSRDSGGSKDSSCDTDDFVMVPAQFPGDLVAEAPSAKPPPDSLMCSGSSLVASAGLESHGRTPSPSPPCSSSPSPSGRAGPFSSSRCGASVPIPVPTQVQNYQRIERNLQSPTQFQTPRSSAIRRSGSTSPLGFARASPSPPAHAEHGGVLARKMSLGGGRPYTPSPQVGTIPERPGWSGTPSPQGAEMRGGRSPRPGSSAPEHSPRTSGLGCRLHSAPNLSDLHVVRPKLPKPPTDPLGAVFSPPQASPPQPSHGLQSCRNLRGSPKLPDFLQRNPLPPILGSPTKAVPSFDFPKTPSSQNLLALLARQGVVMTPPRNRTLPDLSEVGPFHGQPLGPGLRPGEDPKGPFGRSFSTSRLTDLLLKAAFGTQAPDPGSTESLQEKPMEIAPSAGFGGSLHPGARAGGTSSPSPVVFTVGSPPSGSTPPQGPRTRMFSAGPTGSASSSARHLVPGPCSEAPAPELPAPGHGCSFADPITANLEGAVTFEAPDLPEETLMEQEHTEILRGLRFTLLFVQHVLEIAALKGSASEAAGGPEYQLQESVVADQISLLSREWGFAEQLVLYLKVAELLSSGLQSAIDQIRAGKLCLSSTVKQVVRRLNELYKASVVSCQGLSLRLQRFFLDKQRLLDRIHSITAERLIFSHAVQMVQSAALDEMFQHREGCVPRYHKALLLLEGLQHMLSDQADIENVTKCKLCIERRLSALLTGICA
Procedure: as §1, §2, §3, §4, §5, §6, §7, §8, §9, §10, §11, §12, §13, §14, §15, §16, §17, §18, §19, §20, §21

SMILES: Cc1cnc(Nc2ccc(C3CCN(C)CC3)c(F)c2)nc1Nc1ccc(Cl)c(NS(=O)(=O)C(C)(C)C)c1 [MA9060]
- IC50 (ULK2): 4300 nM
- IC50 (JAK2): 6.7 nM
- IC50 (ULK1): 1710 nM
